Results taken from paper PMC3684613 (PLoS ONE, 2013).
Like-named read-outs stand apart in the source and are kept apart here.

Assays:
[1] = system: P. falciparum 3D7; assay: DAPI stain fluorescent high content imaging assay, P. falciparum 3D7 (confirmatory screen, Avery); settings: for EC50 / inhibition of growth at 5 µM / inhibition of growth at 2 µM: Plasmodium falciparum; for EC50: 3D7, read-out: EC50_nM; for inhibition of growth at 5 µM: 3D7, read-out: percent_inh @ 5 uM; for inhibition of growth at 2 µM: 3D7, read-out: percent_inh @ 2 uM
[2] = system: P. falciparum 3D7; design: method as in ChEMBL-NTD; settings: ref ChEMBL-NTD, cited from earlier work
[3] = values follow the order of the source (GNF; GSK; StJude)
[4] = original screening data, source (GSK, GNF, StJude), several values separated by ';' in order of sources

SMILES | EC50 [1] | inhibition of growth at 5 µM [1] | also measured
Cc1ccc(CSCc2ccc(C(=O)NC3CC3)o2)cc1 [MMV007571] | 635 nM | 97% | EC50 ([2]; source GNF): 418 nM
O=C(NCCCN1CCC(N2CCCCC2)CC1)C1=Cc2cc(Br)ccc2OC1 [MMV019995] | 563 nM | 99% | EC50 ([2]; source GSK (TCMDC ids)): 853 nM
O=C(NC(c1ccccc1)c1ccc2cccnc2c1O)c1ccccc1 (stereo not shown) [MMV666080] | 1170 nM | 95% | EC50 ([2]; source GNF): 533 nM; EC50 ([2]; source GSK): 428 nM
COc1ccc(C2N(C)c3ccccc3N2C)cc1 [MMV666075] | – | 62% | EC50 ([2]; source StJude): 15000 nM
CCOc1ccc2c(c1)CN(Cc1ccc(Cl)cc1)CO2 [MMV000443] | 439 nM | 97% | EC50 ([2]; source StJude (SJ ids)): 1490 nM
c1ccc(Cn2c(N=Nc3c(Nc4ccccc4)ccc4ccccc34)nc3ccccc32)cc1 [MMV666023] | 36.8 nM | 96% | EC50 ([2]; source GNF (GNF-Pf id)): 2730 nM
CCOc1ccc(-n2cc(-c3ccccc3)c3c(SCc4cc(C)ccc4C)ncnc32)cc1 [MMV085471] | 1700 nM | 97% | EC50 ([2]; source GNF (GNF-Pf ids)): 2010 nM
Cc1ccccc1OCCSc1nc2ccc(NC(=O)c3ccccc3)cc2s1 [MMV007577] | 1120 nM | 93% | EC50 ([2]; source GNF (GNF-Pf ids)): 9760 nM
O=C1c2ccccc2C2=Nc3ccccc3SC(c3cccc(F)c3)C12 (stereo not shown) [MMV006389] | 414 nM | 94% | EC50 ([2]; source GNF (GNF-Pf ids)): 86.7 nM
Cc1cccc(Nc2nc(N)c3ccccc3n2)c1 [MMV019110] | 400 nM | – | inhibition of growth at 2 µM [1]: 97%; EC50 ([2]; source GSK (TCMDC id)): 574 nM
Cc1cc(C=C2SC(=Nc3ccccc3)N(C3CCCC3)C2=O)c(C)n1-c1ccc(Cl)cc1 [MMV666688] | 263 nM | 97% | EC50 ([2]; source GSK (TCMDC id)): 876 nM
CCOc1ccc(Nc2ccnc3cc(Cl)ccc23)cc1 [MMV007285] | 4000 nM | – | inhibition of growth at 2 µM [1]: 94%; EC50 [2, 3]: 956 nM
COc1ccccc1N=C1C(=O)c2ccccc2C(O)=C1N1CCCCC1 [MMV085203] | 5.3 nM | 98% | EC50 ([2]; source GNF (GNF-Pf id)): 28 nM
Cc1ccc2nc(C)cc(Nc3cccc(C(F)(F)F)c3)c2c1 [MMV000326] | 1170 nM | 98% | EC50 ([2]; source StJude (SJ ids)): 879 nM
CCCc1c(C)nc2ccc(Br)cc2c1O [MMV666095] | 1190 nM | 64% | EC50 ([2]; source GNF (GNF-Pf ids)): 1510 nM
CCOc1cc2c(cc1OCC)C(c1cc(Cl)c(O)c(OCC)c1)NCC2 (stereo not shown) [MMV000481] | 1330 nM | 96% | EC50 ([2]; source StJude (SJ ids)): 3010 nM
O=C(Nc1ccccc1O)c1ccc(Oc2cccc(C(=O)Nc3ccccc3O)c2)cc1 [MMV665888] | – | 91% | EC50 ([2]; source GSK): 799 nM
CNCCCNc1ccnc2cc(Cl)ccc12 [MMV020500] | 82.2 nM | 98% | EC50 ([2]; source GSK (TCMDC id)): 62.4 nM
Clc1ccc2[nH]c3c(NCCCN4CCOCC4)ncnc3c2c1 [MMV006587] | 700 nM | – | EC50 [2, 4]: 109 nM
COc1ccc(C(=O)C2CC2c2ccc(Cl)cc2)cc1 (stereo not shown) [MMV665924] | 1060 nM | 94% | EC50 ([2]; source GNF (GNF-Pf ids)): 217 nM

SMILES | EC50 [1] | inhibition of growth at 5 µM [1] | also measured
COc1cc2c3cc1Oc1c(OC)c(OC)cc4c1C(Cc1ccc(O)c(c1)Oc1ccc(cc1)CC3N(C)CC2)N(C)CC4 (stereo not shown) [MMV007474] | 1270 nM | 96% | EC50 [2, 3]: 997 nM
O=C1c2ccccc2-c2nnc(-c3ccc(Br)cc3)cc21 [MMV665934] | 1070 nM | 99% | EC50 ([2]; source GNF (GNF-Pf ids)): 2500 nM
COc1ccc(-n2ccnc2SCC(=O)Nc2cc(C)ccc2C)c(OC)c1 [MMV019258] | 170 nM | 95% | EC50 ([2]; source GSK (TCMDC id)): 205 nM
O=C(O)C1Cc2c([nH]c3ccccc23)C(c2ccc(Cl)cc2Cl)N1 (stereo not shown) [MMV008138] | 350 nM | – | EC50 ([2]; source GNF (GNF-Pf id)): 1020 nM; EC50 ([2]; source GSK (TCMDC id)): 954 nM
CCC(=O)Nc1nnc(Cc2ccc(OC)c(OC)c2)s1 [MMV020942] | – | 47% | EC50 ([2]; source GSK (TCMDC ids)): 910 nM
O=C(NCc1ccco1)C1CCN(S(=O)(=O)c2ccc(Cl)cc2)CC1 [MMV006188] | 890 nM | 94% | EC50 ([2]; source GNF): 514 nM
Cc1c(C)n(Cc2ccc(F)cc2)c2ccc(C(=O)NCc3ccco3)cc12 [MMV008149] | – | 52% | EC50 ([2]; source GNF): 78.2 nM
OC(Cn1nnc2ccccc21)Cn1c2ccc(Br)cc2c2cc(Br)ccc21 (stereo not shown) [MMV666025] | 1260 nM | 98% | EC50 ([2]; source GNF (GNF-Pf ids)): 3370 nM
Cc1cc(Nc2cccc(F)c2)nc(NCc2ccccc2)n1 [MMV006319] | 662 nM | – | inhibition of growth at 2 µM [1]: 97%; EC50 [2, 4]: 72.2 nM
CCCCCCc1cc2cc(-c3csc(C=Cc4ccccc4)n3)c(=O)oc2cc1O [MMV666692] | 387 nM | 92% | EC50 [2, 3]: 970 nM
CCCCc1c(CCC)c(=N)c2ccccc2n1C [MMV007764] | 716 nM | 77% | EC50 [2, 3]: 311 nM
CCOc1cccc(C(=O)Nc2ccc(-c3nc4ccccc4[nH]3)cc2)c1 [MMV019202] | – | – | % inh. At 2.5 uM ([1]; 2.5 uM (Comment column; solubility issue at 5 uM)): 97%; EC50 [2, 4]: 1010 nM
C=CCc1c(C)nc2ccccc2c1O [MMV006913] | 1290 nM | 85% | EC50 [2, 4]: 707 nM
CN1CCN(c2c3c(c(C#N)c4nc5ccccc5n24)CCC3)CC1 [MMV008127] | 4000 nM | – | inhibition of growth at 2 µM [1]: 42%; EC50 [2, 4]: 1180 nM
CCN(CC)CCNc1ccnc2cc3ccccc3cc12 [MMV006303] | 391 nM | – | EC50 [2, 3]: 28.6 nM
COc1ccc(C2C(C(=O)Nc3cccc(OC)c3)c3ccccc3C(=O)N2C2CCCCC2)cc1 (stereo not shown) [MMV008455] | 1180 nM | 97% | EC50 ([2]; source GNF (GNF-Pf ids)): 1110 nM
CC(C)(C)c1ccc(C2CC3=Nc4ccccc4N(C(=O)c4ccccc4Cl)C(c4ccc(F)cc4)C3=C(O)C2)cc1 (stereo not shown) [MMV011436] | 946 nM | 96% | EC50 [2, 3]: 2630 nM
CCC1(C)CC(CCNCc2ccccc2O)(c2ccc(C)cc2)CCO1 (stereo not shown) [MMV019406] | 142 nM | 97% | EC50 ([2]; source GSK (TCMDC id)): 38.8 nM
FC(F)(F)c1cccc(Nc2nc3ccccc3nc2Nc2cccc(C(F)(F)F)c2)c1 [MMV665794] | 313 nM | 99% | EC50 ([2]; source GSK (TCMDC ids)): 137 nM
COCCNCC(O)Cn1c2ccc(Cl)cc2c2cc(Cl)ccc21 (stereo not shown) [MMV019017] | 1010 nM | – | EC50 [2, 4]: 52 nM

SMILES | EC50 [1] | inhibition of growth at 5 µM [1] | also measured
C=C(C)CCC(C)N1CCC(N2CCC(C(=O)NCCc3ccccc3)CC2)CC1 (stereo not shown) [MMV666110] | 1750 nM | 96% | EC50 ([2]; source StJude): 4260 nM
CCCOCc1cc(CN2CCN(c3cccc(Cl)c3)CC2)c(O)c2ncccc12 [MMV000787] | 407 nM | 97% | EC50 ([2]; source StJude (SJ ids)): 1100 nM
O=C(c1ccccc1F)N(Cc1ccc(Cl)cc1)c1ccccn1 [MMV665899] | – | 59% | EC50 ([2]; source GSK): 1020 nM
Cc1ccc(-c2cc(C(=O)Nc3ccc(S(=O)(=O)N4CCCCC4)cc3)[nH]n2)c(O)c1 [MMV665906] | 535 nM | 94% | EC50 ([2]; source GSK): 1770 nM
CCN(CC)CCNc1ncnc2c1[nH]c1ccc(Br)cc12 [MMV006545] | 707 nM | – | EC50 [2, 4]: 288 nM
CCOC(=O)C1CCN(C(=O)CN2C(=O)c3ccccc3C2c2c[nH]c3ccccc23)CC1 (stereo not shown) [MMV011576] | 1180 nM | 98% | EC50 [2, 4]: 519 nM
CCN1CCN(c2c(C(=O)c3ccccc3)cnc3cc(OC)c(OC)cc23)CC1 [MMV008474] | – | 59% | EC50 ([2]; source GNF (GNF-Pf ids)): 3020 nM
CCC(C)NCC(O)(c1ccc(Cl)cc1)c1ccc(Cl)cc1 (stereo not shown) [MMV665928] | 642 nM | 98% | EC50 ([2]; source GNF): 639 nM; EC50 ([2]; source GSK): 843 nM
Cc1ccc(F)cc1NC(=O)c1cc(Cl)ccc1Nc1ccccc1 [MMV007275] | 539 nM | 99% | EC50 ([2]; source GNF (GNF-Pf ids)): 191 nM
COc1ccccc1N1CCN(C(CNS(=O)(=O)c2ccc(Cl)cc2)c2cccnc2)CC1 (stereo not shown) [MMV665914] | – | 93% | EC50 ([2]; source StJude): 15000 nM
CCOC(=O)C1(Cc2ccccc2)CCN(Cc2cccc(OC)c2O)CC1 [MMV666109] | – | 95% | EC50 ([2]; source StJude (SJ ids)): 2290 nM
COc1cc(-c2nc(-c3ccc(Sc4ccccc4)cc3)c(-c3ccccc3)[nH]2)cc(OC)c1O [MMV007273] | 350 nM | 97% | EC50 ([2]; source GNF (GNF-Pf ids)): 1280 nM
CCn1c(SCC(=O)Nc2cc(C(F)(F)F)ccc2Cl)nc2ccccc2c1=O [MMV666103] | 1000 nM | 91% | EC50 ([2]; source GSK): 397 nM
CC(C)(C)c1ccc(C(=O)Nc2nc3ccccc3s2)cc1 [MMV142383] | – | 81% | EC50 ([2]; source StJude): 15000 nM
CCOC(=O)c1cnc2ccc(CC)cc2c1O [MMV007116] | 351 nM | – | EC50 ([2]; source GNF (GNF-Pf id)): 716 nM
CCOc1ccc(Nc2c3ccccc3nc3ccccc23)cc1 [MMV000304] | 1060 nM | 97% | EC50 ([2]; source StJude (SJ ids)): 5720 nM
CC(C)(C)C(=O)Nc1ccc(C(=O)Nc2cccc(-c3nc4ccccc4[nH]3)c2)cc1 [MMV665879] | – | 91% | EC50 [2, 4]: 282 nM
COc1ccc(CN2CCN(Cc3ccccc3)CC2)c(O)c1 [MMV665944] | 1080 nM | 96% | EC50 ([2]; source StJude (SJ ids)): 1090 nM
COc1ccc(-c2cc(=O)oc3c4c(ccc23)OCN(Cc2ccc(F)cc2)C4)cc1 [MMV000604] | 735 nM | 96% | EC50 ([2]; source StJude (SJ ids)): 5210 nM
